# Ends that are not written are not given here.
# How the values were obtained:
# [1] = tested on: skin flaps based on the epigastric artery and vein; test: Rat epigastric skin flap model, ET-1 induced pedicle vasoconstriction (Background Example 1); assay type: in vivo, rats
# [2] = tested on: free tissue transfer of forearm tissues to the face; conditions: human, in vivo
# [3] = tested on: coronary artery bypass grafts; test: Patient with coronary artery bypass, vasospasm of the grafts (Example II); assay type: in vivo, human
# pedicle flap = conditions: 30 minutes after lidocaine application, topical to pedicle; cited from earlier work
# headache = assay type: in vivo; conditions: oral capsules each containing 100 mg aspirin and 200 mg of CX—NO
# Description: CX—NO of Example 14 of U.S. Pat. No. 6,403,759 is formulated in a gel at 50 mM and is admixed with aspirin and the combination used to fill capsules each containing 100 mg aspirin and 200 mg of CX—NO. […] Alternatively, the CX—NO is used as or included in a coating for aspirin tablets (100 mg aspirin in a tablet), and administration orally of the coated aspirin provides the same result.
# [4] = tested on: island skin flaps based upon the epigastic artery and vein; test: Rat island skin flap model, ET-1 induced vasoconstriction, CX—NO (Background Example 2); assay type: in vivo, rats; conditions: 0.25 ml of 3.17 mM CX—NO in DMSO, 15 min after ET-1, FIG. 1
# [5] = 30 min after application, 2% lidocaine or 10^−4M ENO, 15 min after ET-1, mean±SEM
# [6] = addition of 100 μM ethyl nitrite after lidocaine (2%)
# [7] = topical 10^−5 M ET-1 on pedicle
compound,measurement,setting,value
"CCON=O [ENO, ethyl nitrite]",overall effect on arterial dilation and blood flow (in words),[1]; 2% lidocaine vs 10^−4M ENO,longer lasting and greater effect
same,time after application from which restoration of arterial diameter is greater compared to lidocaine (p<0.05),[1]; 10^−4M ENO vs 2% lidocaine,10 min
same,time after application from which restoration of blood flow is greater compared to lidocaine (p<0.05),[1]; 10^−4M ENO vs 2% lidocaine,13 min
same,arterial diameter,"[1]; 1 min after application (lidocaine: within 1 min), 2% lidocaine or 10^−4M ENO, 15 min after ET-1, mean±SEM",83±5 % of baseline
same,flap blood flow,"[1]; 2 min after application, 2% lidocaine or 10^−4M ENO, 15 min after ET-1, laser Doppler, mean±SEM",62±6 % of baseline
same,flap blood flow,"[1]; 30 min after application, 2% lidocaine or 10^−4M ENO, 15 min after ET-1, laser Doppler, mean±SEM",86±10 % of baseline
same,arterial diameter,[1]; [5],98±5 % of baseline
same,vein diameter,[1]; [5],75±5 % of baseline
same,vasodilation and blood flow after vasospasm,[2],vasodilation and flow is restored
same,EKG (ischemia),[3]; [6],normalized EKG
same,blood flow in grafts,[3]; [6],restored flow
CC(N=O)(S(C)(=O)=O)S(C)(=O)=O [compound (1)],vasodilation and blood flow after vasospasm,[2],same result
"CCN(CC)CC(=O)Nc1c(C)cccc1C [lidocaine, reference compound]",blood flow in grafts,[3]; topical lidocaine (2%),temporary but marginal blood flow
same,"effect on vasoconstriction / blood flow, decreasing to % of baseline",pedicle flap,≤ 50 % of baseline
"ET-1: Endothelin-1, applied topically to induce pedicle vasoconstriction (CSCSSLMDKECVYFCHLDIIW; ends and bridges not checked; cysteine pairing not given here; UniProt P05305 53-73, looked up) [reference compound]",vasoconstriction of the epigastric artery,[1]; [7],69-76%
same,vasoconstriction of the epigastric vein,[1]; [7],43-72%
same,reduction of flap blood flow to % of baseline,"[1]; topical 10^−5 M ET-1 on pedicle, laser Doppler",35-45 % of baseline
O— and S-nitrosylated β-cyclodextrin,headache relief,headache,relieved headache
nitrosylated polythiolated cyclodextrin [CX—NO],arterial diameter as a percentage of baseline,[4],increase
same,vein diameter as a percentage of baseline,[4],increase
same,blood flow in small vessels as a percentage of baseline flow,[4]; laser Doppler,increase
